How the values were obtained:
[1] = Human microsome stability assay; format: in vitro ADME; conditions: for Clearance of Human microsome: 1 μM test compound, 0.5 mg/mL liver microsomal protein, 37° C.
Description: The human microsomal stability assay is used for early assessment of metabolic stability of a test compound in human liver microsomes.
Human liver microsomes (Cat. NO.: 452117, Corning, USA; Cat. NO.:H2610, Xenotech, USA) were preincubated with test compound for 10 minutes at 37° C. in 100 mM potassium phosphate buffer, pH 7.4. The reactions were initiated by adding NADPH regenerating system.
The final incubation mixtures contained 1 μM test compound, 0.5 mg/mL liver microsomal protein, 1 mM MgCl2, 1 mM NADP, 1 unit/mL isocitric dehydrogenase and 6 mM isocitric acid in 100 mM potassium phosphate buffer, pH 7.4. After incubation times of 0, 3, 6, 9, 15 and 30 minutes at 37° C., 300 μL of cold acetonitrile (including internal standard) was added to 100 μL incubation mixture to terminate the reaction. Following precipitation and centrifugation, the amount of compound remaining in the samples were determined by LC-MS/MS. Controls of no NADPH regenerating system at zero and 30 minutes were also prepared and analyzed.

[2] = target: T1, hERG K+ channel (Homo sapiens, UniProt Q12809); assay: hERG channel inhibition assay (patch-clamp, CHO-hERG cells); format: cell-based; conditions: for IC50 / IC20: CHO-hERG cells, whole-cell patch-clamp; for IC20: human, CHO cells stably expressing hERG; for hERG IC20/TLR7 IC50 / hERG IC20/TLR8 IC50 / hERG IC20/TLR9 IC50: safety ratio
T1 construct: expressed in transfected cells; host or cells: CHO (Chinese hamster ovary)
Description: The hERG K^+ channels were cloned in humans and stably expressed in a CHO (Chinese hamster ovary) cell line. CHOhERG cells were used for patch-clamp (voltage-clamp, whole-cell) experiments. Cells were stimulated by a voltage pattern to activate hERG channels and conduct IKhERG Currents (rapid delayed outward rectifier potassium current of the hERG channel). After the cells were stabilized for a few minutes, the amplitude and kinetics of IKhERG were recorded at a stimulation frequency of 0.1 Hz (6 bpm). Thereafter, the test compound was added to the preparation at increasing concentrations. For each concentration, an attempt was made to reach a steady-state effect, usually, this was achieved within 3-10 min at which time the next highest concentration was applied. The amplitude and kinetics of IKhERG are recorded in each concentration of the drug which were compared to the control values (taken as 100%). (references: Redfe W S, Carlsson L, Davis A S, Lynch W G, MacKenzie I, Palethorpe S, Siegl P K, Strang I, Sullivan A T, Wallis R, Camm A J, Hammond T G. 2003; Relationships between preclinical cardiac electrophysiology, clinical QT interval prolongation and torsade de pointes for a broad range of drugs: evidence for a provisional safety margin in drug development. Cardiovasc. Res. 58:32-45, Sanguinetti M C, Tristani-Firouzi M. 2006; hERG potassium channels and cardiac arrhythmia. Nature 440:463-469, Webster R, Leishman D, Walker D. 2002; Towards a drug concentration effect relationship for QT prolongation and torsades de pointes. Curr. Opin. Drug Discov. Devel. 5:116-26).

[3] = target: T2, TLR9 (Homo sapiens, UniProt Q9NR96); assay: Human PBMC cell-based assay; design: These cells express TLR7, TLR8, or TLR9, and therefore are natural responders to respective ligand stimulation; endogenous in cells; host or cells: human PBMC from healthy donor whole blood; conditions: CpG ODN 2216 at 1 μM, read-out: hPBMC/TLR9 IC50
T2 sequence (Q9NR96 26-1032): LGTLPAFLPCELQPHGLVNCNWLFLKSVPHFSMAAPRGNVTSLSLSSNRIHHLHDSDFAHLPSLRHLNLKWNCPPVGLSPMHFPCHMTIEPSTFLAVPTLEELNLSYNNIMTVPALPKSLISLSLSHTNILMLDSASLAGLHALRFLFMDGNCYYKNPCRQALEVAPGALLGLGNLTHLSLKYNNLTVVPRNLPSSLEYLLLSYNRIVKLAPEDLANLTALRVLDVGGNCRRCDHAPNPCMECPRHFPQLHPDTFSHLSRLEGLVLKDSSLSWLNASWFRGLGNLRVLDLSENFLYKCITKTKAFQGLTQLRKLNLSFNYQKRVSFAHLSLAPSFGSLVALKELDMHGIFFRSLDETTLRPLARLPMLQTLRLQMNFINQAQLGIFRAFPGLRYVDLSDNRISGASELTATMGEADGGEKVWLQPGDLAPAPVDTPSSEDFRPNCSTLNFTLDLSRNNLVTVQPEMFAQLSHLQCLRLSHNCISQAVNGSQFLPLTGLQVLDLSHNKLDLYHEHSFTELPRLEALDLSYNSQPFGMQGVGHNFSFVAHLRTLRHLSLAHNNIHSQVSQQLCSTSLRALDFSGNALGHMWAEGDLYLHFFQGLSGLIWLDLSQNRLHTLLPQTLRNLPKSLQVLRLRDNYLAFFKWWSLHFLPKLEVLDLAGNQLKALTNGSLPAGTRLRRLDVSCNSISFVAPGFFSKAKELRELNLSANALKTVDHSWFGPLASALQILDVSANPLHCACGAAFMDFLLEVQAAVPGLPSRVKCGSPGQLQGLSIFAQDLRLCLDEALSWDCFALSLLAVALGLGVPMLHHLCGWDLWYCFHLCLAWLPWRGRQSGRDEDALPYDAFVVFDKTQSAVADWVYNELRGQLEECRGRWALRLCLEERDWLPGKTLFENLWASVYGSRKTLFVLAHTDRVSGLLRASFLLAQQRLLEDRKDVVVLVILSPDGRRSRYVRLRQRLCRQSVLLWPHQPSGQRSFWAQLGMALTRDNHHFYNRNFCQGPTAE
Excerpt: Unlike the HEK reporter cell lines, human peripheral blood mononuclear cell (PBMC) represents primary human immune cells in blood mainly consisting of lymphocytes, monocytes, and dendritic cells. These cells express TLR7, TLR8, or TLR9, and therefore are natural responders to respective ligand stimulation. Upon activation of these TLRs, PBMCs secrete similar cytokines and chemokines in vitro and in vivo, and therefore the in vitro potency of a TLR7/8/9 antagonist in human PBMC is readily translatable to its pharmacodynamics response in vivo.
Human peripheral blood mononuclear cells (PBMC) were isolated from freshly-drawn lithium-heparinized (Lithium Heparin Plus blood Collection tube, BD Vacutainer®) healthy donor whole blood by density gradient (Ficoll-Paque™ PLUS, GE Healthcare life Sciences). Briefly, […] was diluted with 25 mL PBS (without Ca^2+, Mg^2+) in a 50 mL conical tube with porous barrier (Leucosep tube, Greiner bio-one), where 15.5 mL Ficoll-Paque was under laid after spinning. Tubes were centrifuged for 20 minutes at 800×g (1946 rpm) with the brake in the off position, and PBMC were collected from the buffy coat. Cells were then washed twice in PBS, and red blood cells were lysed by suspension in 2 mL (Red Blood Cell Lysis Buffer, Alfa Aesar) for 5-10 minutes at room temperature. After a final wash in PBS, PBMC were resuspended at a final concentration of 2×10^6 cells/mL in RPMI-1640 media with GlutaMAX™ (Gibco) supplemented with 10% Fetal Bovine Serum (Sigma) and plated at 150 μL/well (3×10^5 cells/well) in tissue culture treated round bottom 96-well plates (Corning Incorporated). Antagonist compounds (compounds of this invention) solubilized and serial diluted in 100% DMSO were added in duplicate to cells to yield a final concentration of 1% DMSO (v/v). PBMC were incubated with antagonist compounds for 30 minutes at 37° C., 5% CO2 before adding various TLR agonist reagents in 48 μL complete media per well as follows (final concentrations indicated): CpG ODN 2216 (InvivoGen) at 1 μM for TLR9, ORN 06/LyoVec (InvivoGen) at […] for TLR8 and R848 (InvivoGen) at 1 μg/mL for TLR7 and TLR8. PBMC were incubated overnight at 37° C. with 5% C02. Cell culture supernatants were collected, and levels of various human cytokines were assessed by Luminex assay (ProcartaPlex™ Multiplex Immunoassay, Invitrogen) or ELISA procedure according to the manufacturer's recommended protocol (eBioscience, ThermoFisher Scientific). Viability of the cells was also checked with Cell Viability Assay (CellTiter Glo® Luminescent Cell Viability Assay, Promega).

[4] = target: T2, TLR9; assay: TLR9 activity of Novartis WO2018047081 compounds (background comparison)

T1 sequence (Q12809 whole entry): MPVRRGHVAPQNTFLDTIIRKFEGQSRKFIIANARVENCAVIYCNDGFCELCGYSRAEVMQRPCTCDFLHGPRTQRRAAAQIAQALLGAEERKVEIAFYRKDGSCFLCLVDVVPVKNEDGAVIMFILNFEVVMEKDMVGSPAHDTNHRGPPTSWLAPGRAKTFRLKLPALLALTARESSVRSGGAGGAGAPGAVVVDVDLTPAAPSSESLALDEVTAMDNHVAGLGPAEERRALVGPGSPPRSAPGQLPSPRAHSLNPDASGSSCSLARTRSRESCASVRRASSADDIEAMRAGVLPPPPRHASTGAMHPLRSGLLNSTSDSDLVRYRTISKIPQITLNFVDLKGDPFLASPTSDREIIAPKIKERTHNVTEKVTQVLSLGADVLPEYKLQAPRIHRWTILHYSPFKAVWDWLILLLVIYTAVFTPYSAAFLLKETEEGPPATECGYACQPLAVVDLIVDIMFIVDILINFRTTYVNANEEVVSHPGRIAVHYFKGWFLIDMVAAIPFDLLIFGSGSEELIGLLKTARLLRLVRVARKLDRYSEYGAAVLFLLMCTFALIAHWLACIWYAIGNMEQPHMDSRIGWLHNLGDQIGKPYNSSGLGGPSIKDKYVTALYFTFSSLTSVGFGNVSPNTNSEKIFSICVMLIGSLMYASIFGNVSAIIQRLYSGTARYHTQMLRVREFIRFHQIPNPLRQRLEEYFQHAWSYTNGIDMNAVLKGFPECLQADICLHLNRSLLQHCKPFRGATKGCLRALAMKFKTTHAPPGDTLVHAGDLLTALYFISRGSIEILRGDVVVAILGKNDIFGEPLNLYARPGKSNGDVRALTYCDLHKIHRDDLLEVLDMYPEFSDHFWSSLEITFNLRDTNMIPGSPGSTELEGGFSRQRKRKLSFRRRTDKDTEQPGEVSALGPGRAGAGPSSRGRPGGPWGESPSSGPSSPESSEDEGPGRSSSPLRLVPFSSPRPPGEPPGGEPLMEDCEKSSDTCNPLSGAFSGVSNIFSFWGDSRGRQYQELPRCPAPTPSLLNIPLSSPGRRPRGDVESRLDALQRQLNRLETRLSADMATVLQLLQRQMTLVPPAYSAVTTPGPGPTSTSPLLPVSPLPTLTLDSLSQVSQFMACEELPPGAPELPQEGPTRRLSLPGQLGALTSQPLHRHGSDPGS

Row | Structure (SMILES) | Clearance of Human microsome [1] | IC50 [2] | IC20 [2] | hERG IC20/TLR7 IC50 [2] | hERG IC20/TLR8 IC50 [2] | hERG IC20/TLR9 IC50 [2] | IC50 [3] | TLR9 activity (in words) [4] | human liver microsome stability (in words) [1]
1 | C[C@@H]1CN(c2ccnc3c2cnn3C)CC[C@H]1c1ccc(N2CCNCC2)nc1 (relative stereo) [Example 19, 1-methyl-4-[trans-3-methyl-4-(6-piperazin-1-yl-3-pyridyl)-1-piperidyl]pyrazolo[3,4-b]pyridine] | 6.2 mL/min/kg | – | – | – | – | – | – | – | –
2 | Cc1cc(N2CCC(c3ncc(N4CCNCC4)nc3C)CC2)c2cnn(C)c2n1 [Example 12, 1,6-dimethyl-4-[4-(3-methyl-5-piperazin-1-yl-pyrazin-2-yl)-1-piperidyl]pyrazolo[3,4-b]pyridine] | 9.7 mL/min/kg | > 20 µM | 7 µM | 205.9 | 233.3 | 15.5 | – | – | –
3 | Cc1cc(N2CC[C@@H](c3ncc(N4CCNC5(CC5)C4)cc3C)[C@H](C)C2)c2cnn(C)c2n1 [Example 30, 4-[(3S,4R)-4-[5-(4,7-diazaspiro[2.5]octan-7-yl)-3-methyl-2-pyridyl]-3-methyl-1-piperidyl]-1,6-dimethyl-pyrazolo[3,4-b]pyridine] | – | > 10 µM | 4.9 µM | 544.4 | 350.0 | 11.6 | 0.78 µM | – | –
4 | Cc1cc(N2CCc3c(c(C)nn3CC34CCC(NC(=O)[C@@H]5COCCN5)(CC3)CC4)C2)c2cnn(C)c2n1 [Example N8, reference compound] | 16.3 mL/min/kg | – | – | – | – | – | – | much lower TLR9 activity | poor
5 | Cc1cc(N2CCc3c(c(C)nn3CC34CCC(N(C)C5CCC5)(CC3)CC4)C2)c2cnn(C)c2n1 [Example N79, reference compound] | 18.2 mL/min/kg | – | – | – | – | – | – | best TLR9 activity | poor

Source: US20240360126A1, “PYRAZOLO[3,4-B]PYRIDINE COMPOUNDS FOR THE TREATMENT OF AUTOIMMUNE DISEASE” (Hoffmann-La Roche Inc., priority 2021, published 2024)
